From PubChem BioAssay (NCI) come the findings set out here.

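Cells were grown in 96-well plates and exposed to each compound for 48 hours at five concentrations; endpoints were interpolated linearly between bracketing concentrations, or set to the highest concentration if not reached. Abbreviation: GI50, concentration required for 50% inhibition of growth. TGI marks complete inhibition of growth.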

Test systems include HOP-62 NSCLC; SK-MEL-5 melanoma; SK-MEL-28 melanoma; MDA-MB-435; HT29 colon; MCF7 breast; NCI/ADR-RES ovarian; CAKI-1 renal; A498 renal; SNB-19 CNS.
Holding throughout (experiment): NCI tumour cell line growth inhibition, 48 h

Take `O=C(NCc1ccc(S(=O)(=O)c2cc(F)cc(F)c2)cc1)c1ccc2nccn2c1`: the GI50 with HOP-62 NSCLC is 23 µM; in the assay on SK-MEL-5 melanoma it was 2.22 µM; with SK-MEL-28 melanoma, over 39.8 µM; in the assay on MDA-MB-435, 0.0508 µM; in the assay with HT29 colon, 0.0885 µM; in the assay on MCF7 breast it was 8.69 µM. The GI50 in the assay on NCI/ADR-RES ovarian was 5.08 µM; in the assay with CAKI-1 renal, over 43.3 µM; in the assay with A498 renal, over 28.4 µM; with SNB-19 CNS it was 2.56 µM. Besides, the TGI in the assay on HOP-62 NSCLC is 74 µM; with SK-MEL-5 melanoma, over 100 µM; in the assay on SK-MEL-28 melanoma, 98.1 µM; with MDA-MB-435, over 100 µM; in the assay on HT29 colon it was over 100 µM; in the assay on MCF7 breast it was over 100 µM. Besides, the TGI with NCI/ADR-RES ovarian is over 100 µM; with CAKI-1 renal, over 100 µM; in the assay with A498 renal, over 86.8 µM; in the assay with SNB-19 CNS, over 100 µM.
`O=C(O)C12CC3(C(=O)O)CC(C(=O)O)(CC(C(=O)O)(C1)C3=O)C2=O`: the TGI in the assay on HOP-62 NSCLC, in the assay with SK-MEL-5 melanoma, with SK-MEL-28 melanoma, in the assay on MDA-MB-435, in the assay on HT29 colon and in the assay with MCF7 breast was over 100 µM each time. Further, the TGI in the assay on NCI/ADR-RES ovarian, in the assay on CAKI-1 renal, in the assay with A498 renal and in the assay on SNB-19 CNS was over 100 µM in each case.
Regarding `COc1ccc2c(Oc3ccc(NC(=O)c4c(C)n(CC(C)(C)O)n(-c5ccccc5)c4=O)nc3)ccnc2c1`, the GI50 in the assay on HOP-62 NSCLC was 27.8 µM; with SK-MEL-5 melanoma, 11.5 µM; with SK-MEL-28 melanoma, 22.3 µM; in the assay on MDA-MB-435, 6.57 µM; in the assay on HT29 colon it was 21.6 µM; in the assay on MCF7 breast it was 26.2 µM. In addition, the GI50 with NCI/ADR-RES ovarian is 20.5 µM; in the assay on CAKI-1 renal it was 3.33 µM; in the assay with A498 renal, 4.41 µM; in the assay with SNB-19 CNS, 46.4 µM. The TGI is over 100 µM with HOP-62 NSCLC; over 68.1 µM with SK-MEL-5 melanoma; over 100 µM in the assay with SK-MEL-28 melanoma; over 66.5 µM in the assay on MDA-MB-435; over 91.1 µM in the assay with HT29 colon; 97.7 µM in the assay on MCF7 breast. Besides, the TGI in the assay on NCI/ADR-RES ovarian is over 100 µM; with CAKI-1 renal it was over 27.7 µM; with A498 renal, 85.1 µM; in the assay with SNB-19 CNS, over 100 µM.
As to `NC(=S)N/N=C/c1cc(-c2cccc(N)c2)ccn1`, the GI50 in the assay with HOP-62 NSCLC is 2.44 µM; in the assay on SK-MEL-5 melanoma it was 1.69 µM; with SK-MEL-28 melanoma, 4.35 µM; with MDA-MB-435 it was 3.2 µM; in the assay with HT29 colon, 3.72 µM; with MCF7 breast, 2 µM. Besides, the GI50 in the assay on NCI/ADR-RES ovarian was 2.68 µM; with CAKI-1 renal, 0.972 µM; with A498 renal, 1.61 µM; with SNB-19 CNS it was 4.24 µM. Further, the TGI in the assay with HOP-62 NSCLC was over 36.9 µM; in the assay on SK-MEL-5 melanoma, 7.26 µM; with SK-MEL-28 melanoma it was over 100 µM; in the assay with MDA-MB-435, over 100 µM; in the assay with HT29 colon it was over 100 µM; with MCF7 breast it was over 44.8 µM. Further, the TGI in the assay with NCI/ADR-RES ovarian is over 100 µM; in the assay with CAKI-1 renal, 10.3 µM; with A498 renal, 19.1 µM; in the assay on SNB-19 CNS, over 100 µM.
For `COC(=O)CCC1=C(CC(=O)OC)C(C)=N/C1=C\c1[nH]c(-c2ccc[nH]2)cc1OC`, the GI50 is 8.56 µM in the assay with HOP-62 NSCLC; 1.44 µM in the assay on SK-MEL-5 melanoma; 12.3 µM in the assay on SK-MEL-28 melanoma; 5.81 µM with MDA-MB-435; 0.557 µM with HT29 colon; 2.38 µM in the assay with MCF7 breast. Further, the GI50 in the assay on NCI/ADR-RES ovarian is 4.06 µM; in the assay on CAKI-1 renal, 3.07 µM; in the assay on A498 renal, 10.6 µM; with SNB-19 CNS, 11.6 µM. For the same compound, the TGI was found to be 24.2 µM in the assay on HOP-62 NSCLC; 3.23 µM in the assay with SK-MEL-5 melanoma; 25 µM with SK-MEL-28 melanoma; 23.3 µM in the assay on MDA-MB-435; 10.3 µM in the assay on HT29 colon; 13.5 µM with MCF7 breast. Moreover, the TGI turned out to be 16.9 µM with NCI/ADR-RES ovarian, 11.6 µM with CAKI-1 renal, 23.9 µM in the assay on A498 renal and 31.1 µM in the assay on SNB-19 CNS.
Regarding `O=C(OCC(OC(=O)c1ccccc1)C(OC(=O)c1ccccc1)C(OC(=O)c1ccccc1)c1cnn(-c2ccccc2)n1)c1ccccc1` (stereo not given), the TGI in the assay on HOP-62 NSCLC, in the assay on SK-MEL-5 melanoma, in the assay with SK-MEL-28 melanoma, in the assay on MDA-MB-435, in the assay with HT29 colon and with MCF7 breast was over 100 µM in each case. In addition, the TGI in the assay on NCI/ADR-RES ovarian, with CAKI-1 renal, in the assay with A498 renal and with SNB-19 CNS was over 100 µM each time.
As to `COC(=O)c1cc(/C=C/c2ccc(S(N)(=O)=O)cc2)ccc1O`, the GI50 in the assay on HOP-62 NSCLC is 41.7 µM; in the assay on SK-MEL-5 melanoma, 14.5 µM; in the assay on SK-MEL-28 melanoma, 95.5 µM; with MDA-MB-435, 35.6 µM; in the assay with HT29 colon, 64.5 µM; with MCF7 breast, 30.7 µM. The GI50 was 59.2 µM with NCI/ADR-RES ovarian, 28.6 µM with CAKI-1 renal, 0.0161 µM in the assay with A498 renal and 38.2 µM with SNB-19 CNS. For the same compound, the TGI in the assay with HOP-62 NSCLC was over 100 µM; in the assay with SK-MEL-5 melanoma, 35.5 µM; in the assay on SK-MEL-28 melanoma it was over 100 µM; in the assay with MDA-MB-435, over 100 µM; with HT29 colon, over 100 µM; in the assay on MCF7 breast, over 100 µM. Further, the TGI was over 100 µM with NCI/ADR-RES ovarian, over 100 µM in the assay with CAKI-1 renal, 20.2 µM with A498 renal and over 100 µM in the assay with SNB-19 CNS.
With `Nc1ccccc1SC1CC(=O)N(c2ccc(Cl)c(Cl)c2)C1=O` (stereo not given), the GI50 with HOP-62 NSCLC was 21 µM; in the assay with SK-MEL-5 melanoma, 21.9 µM; in the assay on SK-MEL-28 melanoma, 45.4 µM; in the assay with MDA-MB-435, 26.1 µM; with HT29 colon it was 42.1 µM; in the assay with MCF7 breast it was 27.1 µM. Further, the GI50 in the assay with NCI/ADR-RES ovarian is 17.1 µM; with CAKI-1 renal it was 21.7 µM; in the assay with A498 renal, 4.88 µM; in the assay with SNB-19 CNS it was 31.6 µM. For the same compound, the TGI is 66.7 µM with HOP-62 NSCLC; over 100 µM with SK-MEL-5 melanoma; over 100 µM with SK-MEL-28 melanoma; over 100 µM with MDA-MB-435; over 100 µM in the assay on HT29 colon; over 100 µM in the assay with MCF7 breast. In addition, the TGI in the assay on NCI/ADR-RES ovarian is over 100 µM; in the assay with CAKI-1 renal it was over 100 µM; in the assay with A498 renal, 37.2 µM; in the assay with SNB-19 CNS it was over 100 µM.
